Data taken from paper PMC10610090, “The Synthetic Peptide GA-Hecate and Its Analogs Inhibit Multiple Steps of the Chikungunya Virus Infection Cycle In Vitro” (Pharmaceuticals, 2023).
Read-outs that look alike come from different tables or passages of the source. Peptide text beside a SMILES is read from it. * marks the point of attachment. Galloyl = O=C(c1cc(O)c(O)c(O)c1)*; X1 = CN(C)c1ccc(C(=O)*)cc1

Tests used:
[1] = MTT cytotoxicity assay in BHK-21 cells; format: cell-based; conditions: hamster
Description: (§1) Cytotoxicity in BHK-21 and Huh-7 cells was evaluated using the 3-(4,5-dimethylthiazol-2-yl)-2,5-diphenyltetrazolium bromide (MTT) assay as previously described. The cells (5 × 10^3 per well) were seeded in 96-well culture plates (TPP, Trasadingen, Switzerland). After 24 h, the cells were incubated with the peptides at concentrations of 1.6, 3.1, 6.3, 12.5, 25, 50, and 100 µM for 24 h. Then, the medium containing the peptides was removed, and 100 µL of MTT (Sigma-Aldrich, St. Louis, MO, USA) diluted in DMEM (Cultilab, Campinas, SP, Brazil) (1 mg/mL) was added to each well of the plate (1 mg/mL). After 30 min of incubation at 37 °C, the medium containing MTT (Sigma-Aldrich, St. Louis, MO, USA) was removed, and 100 µL of dimethylsulfoxide (DMSO, Synth, Diadema, SP, Brazil) was added to the cells. The plate was agitated at 200 rpm. After 5 min, the absorbance was measured at a wavelength of 572 nm on a plate reader (FLUOstar Omega/BMG LABTECH, Ortenberg, Germany). The CC50 values were calculated using GraphPad Prism 5.0 software (GraphPad Software, San Diego, CA, USA).
(§2) All the described experiments were performed in three independent events, each of which was carried out in three (cytotoxicity) and four (antiviral activity) technical replicates. The CC50 and EC50 values were determined by nonlinear regression of the dose-response curves (Log [peptide] × response). The statistical significance was determined employing the paired Student’s t-test for parametric results and the Mann–Whitney test for nonparametric data using GraphPad Prism 5.0 software (GraphPad Software, San Diego, CA, USA). A p-value < 0.05 was considered statistically significant.

[2] = MTT cytotoxicity assay in Huh-7 cells; format: cell-based; conditions: human
Description: as §1, §2

CHIKV-NLuc = format: cell-based, Chikungunya virus; conditions: CHIKV-NLuc MOI 0.1, 16 h, NLuc activity
Description: Measurement of the activity of the virus-encoded NanoLuciferase (NLuc) reporter was used to evaluate the antiviral activity of the peptides against CHIKV-NLuc at the end of every assay with the peptides. Cells were infected with CHIKV-NLuc, and the supernatant was aspirated 16 h post-infection (h.p.i.), and each well of the plate was washed with PBS solution. Then, 30 µL of Renilla Luciferase Assay Lysis Buffer (Promega, Madison, WI, USA) was added to the cells. After 30 min, 50 μL of substrate for Renilla Luciferase (Renilla Luciferase assay reagent, Promega, Madison, WI, USA) was automatically injected in the wells into the plate reader (FLUOstar Omega/BMG LABTECH, Ortenberg, Germany), and the light intensity reading was performed. The values obtained are shown as the percentage of protein NLuc activity in the control (samples treated with sterile water).
The effects of the peptides on the CHIKV infectious cycle were analyzed as previously described. BHK-21 and Huh-7 cells (1 × 10^4 per well) were seeded in 96-well white culture plates (Greiner Bio-One, Americana, SP, Brazil) for 24 h. Then, the virus at an MOI of 0.1 and the peptides at the MNTC were simultaneously added to the cells. The plate was incubated at 37 °C for 16 h, and then antiviral activity against CHIKV was evaluated through NLuc activity. […] The SI was calculated using the ratio CC50/EC50.
as §2

BHK-21 and Huh-7 cells = assay: MTT cytotoxicity, maximum nontoxic concentration over both cell lines; format: cell-based, hamster; human
Description: The cytotoxicity of the peptides GA-Hecate, PSSct1905, and PSSct1910 was evaluated in baby hamster kidney fibroblast cells (BHK-21) and human hepatocarcinoma epithelial cells (Huh-7). We defined the maximum nontoxic concentration (MNTC), expressed in µM, as the highest peptide concentration that kept at least 80% of BHK-21 and Huh-7 cells viable within 24 h.
as §1, with “The plate was agitated at 200 rpm.” left out

SMILES | CC50 at 24 h [1] [µM] | CC50 at 24 h [2] [µM] | EC50 (CHIKV-NLuc; BHK-21 cells) [µM] | EC50 (CHIKV-NLuc; Huh-7 cells) [µM] | increase in the CC50 value compared to GA-Hecate (BHK-21 and Huh-7 cells; more prominent in BHK-21 cells) | MNTC (maximum nontoxic concentration) (BHK-21 and Huh-7 cells; highest concentration keeping at least 80% of BHK-21 and Huh-7 cells viable within 24 h, MTT) [µM]
CC(C)C[C@H](NC(=O)[C@H](C)NC(=O)[C@H](CCCCN)NC(=O)[C@H](CCCCN)NC(=O)[C@H](CC(C)C)NC(=O)[C@H](C)NC(=O)[C@H](CCCCN)NC(=O)[C@H](CCCCN)NC(=O)[C@H](CC(C)C)NC(=O)[C@H](CCCCN)NC(=O)[C@H](CCCCN)NC(=O)[C@H](CC(C)C)NC(=O)[C@H](C)NC(=O)[C@H](CCCCN)NC(=O)[C@H](CCCCN)NC(=O)[C@H](CC(C)C)NC(=O)[C@H](C)NC(=O)[C@H](CCCCN)NC(=O)[C@H](CC(C)C)NC(=O)[C@H](C)NC(=O)[C@H](CC(C)C)NC(=O)[C@H](C)NC(=O)[C@H](Cc1ccccc1)NC(=O)c1cc(O)c(O)c(O)c1)C(N)=O [GA-Hecate] (Galloyl-FALALKALKKALKKLKKALKKAL-NH2) | 23.3 | 221 | 5.7 | 4.5 | – | –
CC(C)C[C@H](NC(=O)[C@H](CCCCN)NC(=O)[C@H](CCCCN)NC(=O)[C@H](CC(C)C)NC(=O)[C@H](C)NC(=O)[C@H](CCCCN)NC(=O)[C@H](CCCCN)NC(=O)[C@H](CC(C)C)NC(=O)[C@H](C)NC(=O)[C@H](CCCCN)NC(=O)[C@H](CC(C)C)NC(=O)[C@H](C)NC(=O)[C@H](CC(C)C)NC(=O)[C@H](C)NC(=O)[C@H](Cc1ccccc1)NC(=O)c1cc(O)c(O)c(O)c1)C(=O)O [PSSct1905, GA-FALALKALKKALKKL-COOH] (Galloyl-FALALKALKKALKKL-OH) | 56.5 | 205 | 8.4 | 7.1 | approximately 2 fold | –
CC(C)C[C@H](NC(=O)[C@H](C)NC(=O)[C@H](CCCCN)NC(=O)[C@H](CCCCN)NC(=O)[C@H](CC(C)C)NC(=O)[C@H](C)NC(=O)[C@H](CCCCN)NC(=O)[C@H](CCCCN)NC(=O)[C@H](CC(C)C)NC(=O)[C@H](CCCCN)NC(=O)[C@H](CCCCN)NC(=O)[C@H](CC(C)C)NC(=O)[C@H](C)NC(=O)[C@H](CCCCN)NC(=O)[C@H](CCCCN)NC(=O)[C@H](CC(C)C)NC(=O)[C@H](C)NC(=O)[C@H](CCCCN)NC(=O)[C@H](CC(C)C)NC(=O)[C@H](C)NC(=O)[C@H](CC(C)C)NC(=O)[C@H](C)NC(=O)[C@H](Cc1ccccc1)NC(=O)c1ccc(N(C)C)cc1)C(N)=O [PSSct1910] (X1-FALALKALKKALKKLKKALKKAL-NH2) | 5.4 | 7.7 | 1.1 | 0.2 | – | 1.6
